Results: patent US8735411B2, “Macrocyclic benzofused pyrimidine derivatives” (AbbVie Inc., priority 2006, dated 2014)

Experiments:
histamine H4 receptor [1] = biological target: T1, histamine H4 receptor (Homo sapiens, UniProt Q9H3N8); assay: In vitro histamine H4 potency in FLIPR (Ca2+ flux, HEK-293 cells coexpressing Gαqi5); format: cell-based; set-up: expressed in transfected cells; settings: Kb for antagonists and inverse agonists, EC50 for partial agonists
Procedure, shortened: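 Fluo-4-loaded cells read on FLIPR for intracellular Ca2+ rise after compound addition, with pre-addition fluorescence subtracted. Peak responses per concentration expressed as % of the full-agonist histamine response. Concentration–response fits give Kb for antagonists/inverse agonists and EC50 for partial agonists.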
Target sequence in this assay (Q9H3N8 whole entry): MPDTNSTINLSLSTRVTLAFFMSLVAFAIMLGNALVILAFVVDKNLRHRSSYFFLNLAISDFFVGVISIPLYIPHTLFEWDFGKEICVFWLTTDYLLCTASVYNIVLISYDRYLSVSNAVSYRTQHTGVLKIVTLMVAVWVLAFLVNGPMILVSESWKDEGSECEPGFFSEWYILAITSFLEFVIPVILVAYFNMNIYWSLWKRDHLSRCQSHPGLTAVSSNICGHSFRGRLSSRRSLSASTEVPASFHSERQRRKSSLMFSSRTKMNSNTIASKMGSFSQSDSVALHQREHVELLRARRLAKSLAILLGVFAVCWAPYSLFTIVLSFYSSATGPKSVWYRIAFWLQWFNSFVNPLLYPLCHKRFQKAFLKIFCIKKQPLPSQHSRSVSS

histamine H4 receptor [2] = biological target: T1, histamine H4 receptor; assay: [3H]-histamine competition binding assay on membranes of transfected HEK-293 cells; set-up: expressed in transfected cells; host or cells: HEK-293 cells, transient transfection with pCINeo vector; membranes; settings: displacement of [3H]-histamine; Ki by Cheng-Prusoff equation; read-out: Potency
Procedure: In this assay, membranes were prepared from HEK-293 cells transiently transfected with the pCINeo expression vector harboring the histamine H4 receptor by homogenization of the cells on ice in TE buffer (50 mM Tris-HCl buffer, pH 7.4, containing 5 mM EDTA), 1 mM benzamidine, 2 μg/ml aprotinin, 1 μg/ml leupeptin, and 1 μg/ml pepstatin. The homogenate was centrifuged at 40,000 g for 20 minutes at 4° C. This step was repeated, and the resulting pellet was resuspended in TE buffer. Aliquots were frozen at −70° C. until needed. On the day of assay, membranes were thawed and diluted with TE buffer. Competition radioligand binding assays were performed with increasing concentrations of test compound in the presence of [^3H]-histamine incubated at 25° C. for 1 hour in a total volume of 0.5 ml of 50 mM Tris, 5 mM EDTA, pH 7.4. All binding reactions were terminated by filtration under vacuum onto polyethylenimine (0.3%) presoaked Unifilters (PerkinElmer Life Sciences) or Whatman GF/B filters (Whatman, Clifton, N.J.) followed by three brief washes with 4 ml of ice-cold TE buffer. Bound radiolabel was determined by liquid scintillation counting. For all of the radioligand competition binding assays, IC50 values and Hill slopes were determined by Hill transformation of the data and Ki values were determined by the Cheng-Prusoff equation.
Target sequence in this assay (Q9H3N8 whole entry, species assumed): as the sequence (Q9H3N8 whole entry) above

neuropathic pain = assay: Analgesic effect against neuropathic pain: L5/L6 spinal nerve ligation (Chung model), von Frey mechanical allodynia; format: in vivo, rat; settings: 100 micromole/kg i.p., 30 minutes before testing
Procedure: Animals were prepared for testing, by use of a surgical procedure that induces neuropathic pain in one paw. Male Sprague Dawley rats were purchased from Charles River (Portage, Mich.). Prior to surgery, animals were housed in groups and maintained in a temperature-regulated environment. Following nerve ligation surgery, animals were housed in groups, and had access to food and water ad libitum.
The L5 and L6 spinal nerves of anesthetized rats were tightly ligated in a manner described previously (see Kim and Chung, Pain (1992) vol. 50 pp. 355-363). An incision was made on the dorsal portion of the hip and the muscle was blunt-dissected to reveal the spinal processes. The L6 transverse process was removed, and the left side L5 and L6 spinal nerves were tightly ligated with 5.0 braided silk suture. The wound was cleaned, the membrane sewn with 4.0 dissolvable Vicryl suture and the skin closed with wound clips. The paw affected by the surgical procedure (the left paw) develops an allodynic response, a hypersensitivity to mechanical and other stimuli; neuropathic pain is assessed as an increased sensitivity in the surgically affected (left) allodynic paw compared to the control paw on the right side, and measured by comparing the response of the (left side) allodynic paw to the response of the unaffected right side control paw.
For the assessment of neuropathic pain, mechanical allodynia in the affected paw of animals that had undergone spinal nerve ligation was evaluated using testing with von Frey filaments. As described previously by S. R. Chaplan, et al (“Quantitative assessment of tactile allodynia in the rat paw” J. Neurosci. Meth. (1994) vol. 53 pp. 55-63), two weeks following surgery rats were acclimated to a testing box constructed of plexiglass with a wire mesh floor which allowed access to the plantar surface of the animal's hindpaws. Using an Up-Down method (Dixon, Annu. Rev. Pharmacol. Toxicol. (1980) vol. 20, pp. 441-462; Chaplan et al. “Quantitative assessment of tactile allodynia in the rat paw” J. Neuroscience Methods (1994) vol. 53 pp. 55-63), von Frey filaments of increasing stiffness were applied to the plantar surface of the hindpaws and the withdrawal response of the animals was observed; for the surgically affected paw with neuropathic pain (the left side paw) the baseline level of allodynia has a withdrawal threshold of ≦4 g of pressure. […] The efficacy of the compound in reducing neuropathic pain at different doses is determined by comparing response in the surgery-affected paw versus the response in the control paw. This is expressed as the MPE (maximum percent effect), or 100 times the withdrawal threshold of the allodynic (left side) divided by the withdrawal threshold of the control (right side).

inflammatory pain = assay: Analgesic effect against inflammatory pain: carrageenan-induced thermal hyperalgesia, hotbox assay; format: in vivo; settings: 100 micromole/kg i.p., 90 min after carrageenan, tested 30 min after dosing
Procedure: To assess the effectiveness of representative compounds of the invention against acute model inflammatory pain, animals were tested in an acute model of carrageenan-induced thermal hyperalgesia (see for example, Honore, et al. Behavioural Brain Research 167 (2006) 355-364; Porreca, et al. Journal of Pharmacology and Experimental Therapeutics (2006) vol. 318 pp. 195-205). Carrageenan was injected into the test paw of the animal, and after 90 minutes, the test drug was administered by intraperitoneal dosing; the effect on thermal hyperalgesia was assessed in a hotbox assay which done 30 minutes after the intraperitoneal dosing of the test drug, and the MPE (maximal percent effect) reported by comparison to the control paw (not injected with carrageenan), according to 100 times the withdrawal latency of the carrageenan injected paw (in seconds) divided by the withdrawal latency of the control (not injected with carrageenan) paw.

SMILES: CN[C@@H]1CCN(c2nc(N)nc3c2CCCc2ccccc2-3)C1 [Example 6, 4-(3-(R)-Methylamino-pyrrolidin-1-yl)-6,7-dihydro-5H-benzo[6,7]cyclohepta[1,2-d]pyrimidin-2-ylamine]
- Potency (histamine H4 receptor [1]): 6.6 nM
- Ki (histamine H4 receptor [2]): 5 nM

SMILES: Nc1nc2c(c(N3CCNCC3)n1)CCCc1ccccc1-2 [Example 7, 4-Piperazin-1-yl-6,7-dihydro-5H-benzo[6,7]cyclohepta[1,2-d]pyrimidin-2-ylamine]
- MPE (neuropathic pain): 30%
- Potency (histamine H4 receptor [1]): 15 nM
- Ki (histamine H4 receptor [2]): 8 nM
- MPE (inflammatory pain): 23%

SMILES: Nc1nc2c(c(N3CC[C@@H](N)C3)n1)CCCc1ccccc1-2 [Example 16, 4-((3R)-3-Amino-pyrrolidin-1-yl)-6,7-dihydro-5H-benzo[6,7]cyclohepta[1,2-d]pyrimidin-2-ylamine]
- MPE (neuropathic pain): 47%
- MPE (inflammatory pain): 68%

SMILES: Nc1nc(OC2CCNCC2)c2c(n1)-c1ccccc1CCC2 [Example 72, 4-(Piperidin-4-yloxy)-6,7-dihydro-5H-benzo[6,7]cyclohepta[1,2-d]pyrimidin-2-ylamine]
- Potency (histamine H4 receptor [1]): 1097 nM

SMILES: Nc1nc(NCCC2CCN2)c2c(n1)-c1ccccc1CCC2 (stereo not shown) [Example 63, N^4-(2-azetidin-2-ylethyl)-6,7-dihydro-5H-benzo[6,7]cyclohepta[1,2-d]pyrimidine-2,4-diamine]
- Potency (histamine H4 receptor [1]): 269 nM

SMILES: Nc1nc(NC2CCCC3CNCC32)c2c(n1)-c1ccccc1CCC2 (stereo not shown) [Example 122, N^4-(Octahydro-isoindol-4-yl)-6,7-dihydro-5H-benzo[6,7]cyclohepta[1,2-d]pyrimidine-2,4-diamine]
- Potency (histamine H4 receptor [1]): 1288 nM

SMILES: Nc1nc2c(c(N3CCNCC3)n1)COc1ccccc1-2 [Example 10, 1-Piperazin-1-yl-10H-9-oxa-2,4-diaza-phenanthren-3-ylamine]
- Potency (histamine H4 receptor [1]): 10 nM

SMILES: Nc1nc2c(c(N3CCC4(CCCCN4)CC3)n1)CCCc1ccccc1-2 [Example 75, 4-(1,9-Diaza-spiro[5.5]undec-9-yl)-6,7-dihydro-5H-benzo[6,7]cyclohepta[1,2-d]pyrimidin-2-ylamine]
- Potency (histamine H4 receptor [1]): 4898 nM

SMILES: COC(=O)c1ccc2c(c1)OCCc1c-2nc(N)nc1N1CC2CCCNC2C1 (stereo not shown) [Example 108, 2-Amino-4-octahydro-pyrrolo[3,4-b]pyridin-6-yl-5,6-dihydro-7-oxa-1,3-diaza-dibenzo[a,c]cycloheptene-9-carboxylic acid methyl ester]
- Potency (histamine H4 receptor [1]): 53 nM

SMILES: CN[C@@H]1CCN(c2nc(N)nc3c2CCCc2cc4c(cc2-3)CCCC4)C1 [Example 97, 4-((R)-3-Methylamino-pyrrolidin-1-yl)-6,7,9,10,11,12-hexahydro-5H-1,3-diaza-benzo[3,4]cyclohepta[1,2-b]naphthalen-2-ylamine]
- Potency (histamine H4 receptor [1]): 29 nM

SMILES: Nc1nc2c(c(N3CC[C@@H](N)C3)n1)CCCCCc1ccccc1-2 [Example 24, 4-((R)-3-Amino-pyrrolidin-1-yl)-6,7,8,9-tetrahydro-5H-1,3-diaza-dibenzo[a,c]cyclononen-2-ylamine]
- Potency (histamine H4 receptor [1]): 148 nM

SMILES: Nc1nc2c(c(N3CCNCC3)n1)CCSc1ccccc1-2 [Example 36, 4-Piperazin-1-yl-5,6-dihydro-7-thia-1,3-diaza-dibenzo[a,c]cyclohepten-2-ylamine]
- Potency (histamine H4 receptor [1]): 39 nM

SMILES: CNC1CN(c2nc(N)nc3c2CCOc2ccccc2-3)C1 [Example 32, 4-(3-Methylamino-azetidin-1-yl)-5,6-dihydro-7-oxa-1,3-diaza-dibenzo[a,c]cyclohepten-2-ylamine]
- Potency (histamine H4 receptor [1]): 8.7 nM

SMILES: Nc1nc2c(c(N3CC[C@@H]4CNC[C@@H]43)n1)CCCCc1ccccc1-2 [Example 58, 4-[(3aR,6aR)-hexahydropyrrolo[3,4-b]pyrrol-1(2H)-yl]-5,6,7,8-tetrahydrobenzo[7,8]cycloocta[1,2-d]pyrimidin-2-amine]
- Potency (histamine H4 receptor [1]): 182 nM

SMILES: Nc1nc2c(c(N3CCNCC3)n1)CCCCc1ccccc1-2 [Example 20, 4-Piperazin-1-yl-5,6,7,8-tetrahydro-1,3-diaza-dibenzo[a,c]cycloocten-2-ylamine]
- Potency (histamine H4 receptor [1]): 32 nM

SMILES: CNC1CN(c2nc(N)nc3c2CCCc2ccc(F)cc2-3)C1 [Example 12, 10-Fluoro-4-(3-methylamino-azetidin-1-yl)-6,7-dihydro-5H-benzo[6,7]cyclohepta[1,2-d]pyrimidin-2-ylamine]
- Potency (histamine H4 receptor [1]): 7.4 nM

SMILES: CN[C@H]1CCN(c2nc(N)nc3c2CCCc2ccccc2-3)C1 [Example 14, 4-[(3S)-3-Methylamino-pyrrolidin-1-yl]-6,7-dihydro-5H-benzo[6,7]cyclohepta[1,2-d]pyrimidin-2-ylamine]
- Potency (histamine H4 receptor [1]): 331 nM

SMILES: Nc1nc2c(c(N3CC4CCCNC4C3)n1)CCOc1cc(-c3cccnc3)ccc1-2 (stereo not shown) [Example 106, 4-Octahydro-pyrrolo[3,4-b]pyridin-6-yl-9-pyridin-3-yl-5,6-dihydro-7-oxa-1,3-diaza-dibenzo[a,c]cyclohepten-2-ylamine]
- Potency (histamine H4 receptor [1]): 140 nM

SMILES: CN[C@@H]1CCN(c2nc(N)nc3c2CCOc2cc(C)ccc2-3)C1 [Example 49, 9-methyl-4-[(3R)-3-(methylamino)pyrrolidin-1-yl]-5,6-dihydro[1]benzoxepino[5,4-d]pyrimidin-2-amine]
- Potency (histamine H4 receptor [1]): 39 nM

SMILES: Nc1nc2c(c(N3CCCNCCC3)n1)CCCc1ccccc1-2 [Example 61, 4-(1,5-diazocan-1-yl)-6,7-dihydro-5H-benzo[6,7]cyclohepta[2-d]pyrimidin-2-amine]
- Potency (histamine H4 receptor [1]): 8.7 nM

SMILES: Nc1nc2c(c(N3CC[C@H]4CNC[C@H]43)n1)CCCCCc1ccccc1-2 [Example 27, 4-((3aS,6aS)-Hexahydro-pyrrolo[3,4-b]pyrrol-1-yl)-6,7,8,9-tetrahydro-5H-1,3-diaza-dibenzo[a,c]cyclononen-2-ylamine]
- Potency (histamine H4 receptor [1]): 16596 nM

SMILES: Nc1nc2c(c(N3CCC(N)CC3)n1)CCCc1ccccc1-2 [Example 62, 4-(4-aminopiperidin-1-yl)-6,7-dihydro-5H-benzo[6,7]cyclohepta[1,2-d]pyrimidin-2-amine]
- Potency (histamine H4 receptor [1]): 389 nM

SMILES: Nc1nc2c(c(N3CC(N)C3)n1)CCCCc1ccccc1-2 [Example 57, 4-(3-aminoazetidin-1-yl)-5,6,7,8-tetrahydrobenzo[7,8]cycloocta[1,2-d]pyrimidin-2-amine]
- Potency (histamine H4 receptor [1]): 562 nM
